Measured values: patent US20110098323A1, “INHIBITORS OF BACTERIAL BIOFILM FORMATION” (MICROBIOTIX, INC., priority 2009, published 2011)
Read-outs that look alike come from different tables or passages of the source.

Columns and labels:
S. epidermidis 18972 = experiment: MBIC/MIC secondary assay (crystal violet biofilm staining / OD600 growth); assay type: cell-based, Staphylococcus epidermidis; details: for MIC: Staphylococcus epidermidis
Experimental: (§1) Assays for detecting and measuring bacterial biofilm formation are known in the art. An example of a biofilm formation assay useful in detecting and characterizing biofilm inhibitor compounds is described in Example 1, infra. Briefly, bacterial cells are inoculated into growth medium in individual wells of a 96-well assay plate in the presence or absence of a compound (known biofilm inhibitor or test compound). After incubation for a specified time, growth medium and non-biofilm bacterial cells are removed from each of the wells. The bacterial cells in any biofilms that are adhered to the surface of a well are fixed by addition of ethanol. The ethanol is removed, and the fixed biofilm bacteria cells are stained with crystal violet (CV). The intensity of CV staining is directly correlated with bacterial biofilm formation and is measured in the wells by reading the optical density at 600 nm (OD600). The difference in biofilm formation between untreated control and treated cultures provides an indication of relative biofilm inhibition activity (anti-biofilm activity). Use of different concentrations of an inhibitor in multiple and otherwise duplicate cultures permits determination of a compound's Minimal Biofilm Inhibitory Concentration (MBIC), which is defined herein as the lowest concentration of a compound that inhibits biofilm formation by at least 80% (i.e., ≧80%) compared to untreated control cultures.
A higher throughput was achieved by formatting the assay for use in flat-bottomed 96-well assay plates (Costar 3590 assay plates, Corning Life Sciences, Lowell, Mass.). The biofilm cultures grew on the bottoms of each well in a surface attached mode. In each assay plate, columns 1 and 12 contained untreated cultures, which served as negative controls (0% biofilm inhibition). Each of the assay wells in columns 2-11 contained a unique small molecule from the Microbiotix Screening Library (MSL) at a final concentration of 100 μM. Assay plates were inoculated with 200 μl/well of a culture of Staphylococcus pidermidis 18972 in 0.5×Tryptic Soy Broth (TSB; Becton Dickinson, Franklin Lakes, N.J.) in which the concentration of glucose was adjusted to 0.25% (w/v). The bacterial inocula were prepared by making a 1:100 dilution of an overnight culture grown in TSB in the media used for the screen. After inoculation, assay plates were sealed with foil tape and incubated at 37° C. for 18-20 hours (h). The optical density at 600 nm (OD600) was measured for each well using a VICTOR2V™ multiplate reader (Perkin Elmer, Waltham, Mass.) in order to quantify overall bacterial growth. The assay plates were processed to remove bacterial growth media and non-biofilm cells from the bottom of each assay well. This was accomplished by using a BioTek ELx405™ plate washer (BioTek Instruments, Inc., Winooski, Vt.). Biofilm bacteria were fixed by addition of 50 μl of 95% ethanol for 30 minutes (min). The ethanol was removed, and the fixed biofilm cultures were stained with 50 μl of 0.06% crystal violet (CV) for 60 min. Excess CV was removed by repeated washes using the BioTek ELx405™ plate washer. The amount of CV bound to each assay well was quantified by measuring OD600 using a VICTOR2V™ plate reader (Perkin Elmer).
A secondary assay provided a quantitative measure of both anti-biofilm activity and antibacterial activity in terms of the Minimal Biofilm Inhibitory Concentration (MBIC) and the Minimal Inhibitory Concentration (MIC), respectively. The MBIC and MIC are defined as the lowest compound concentrations that inhibit biofilm formation and bacterial growth, respectively, by at least 80% (i.e., ≧80%). The MBIC/MIC assay is formatted in a manner that is similar to the Microbroth dilution assays described by the Clinical and Laboratory Standards Institute (CLSI; formerly NCCLS) in protocol M7-A7. The growth conditions were optimized for biofilm growth in 96-well assay plates such that the resulting CV staining was within the linear range of detection. […]

[1] = system: Pseudomonas aeruginosa PAO1; experiment: MBIC/MIC secondary assay; assay type: cell-based; details: for MIC: Pseudomonas aeruginosa, PAO1
Experimental: as §1, with “cultures. […]” for “cultures.”
A secondary assay provided a quantitative measure of both anti-biofilm activity and antibacterial activity in terms of the Minimal Biofilm Inhibitory Concentration (MBIC) and the Minimal Inhibitory Concentration (MIC), respectively. The MBIC and MIC are defined as the lowest compound concentrations that inhibit biofilm formation and bacterial growth, respectively, by at least 80% (i.e., ≧80%). The MBIC/MIC assay is formatted in a manner that is similar to the Microbroth dilution assays described by the Clinical and Laboratory Standards Institute (CLSI; formerly NCCLS) in protocol M7-A7. The growth conditions were optimized for biofilm growth in 96-well assay plates such that the resulting CV staining was within the linear range of detection. Therefore, the MBIC/MIC assay provided a stringent measure of anti-biofilm activity.
The assay was adapted for several biofilm-forming strains of S. epidermidis, S. aureus, Enterococcus faecalis, and Pseudomonas aeruginosa. Briefly, 96-well assay plates contained a two-fold dilution series for up to 8 compounds (one compound/row) and untreated controls (concentration range of 0.2 μM-100 μM). The assay plates were inoculated with the test bacterial species, e.g., S. epidermidis 18972 (0.5×TSB, 0.25% glucose) or S. aureus ATCC 35556 (0.5×TSB, 1% glucose). The inocula were prepared by diluting an overnight culture 1:100 in fresh media, which corresponds to approximately 5×10^6 cells/well. After inoculation, the assay plates were sealed with foil tape and incubated for 18 h-20 h at 37° C. The assay plates were processed, and the percent inhibition of growth (% INH-Growth) and percent inhibition of biofilm formation (% INH-Biofilm) were calculated as described above. […] Compounds with an MBIC≦10 μM and an MIC/MBIC ratio≧8 for either S. epidermidis or S. aureus were designated as validated hits.
Compounds were also tested for anti-biofilm activity against a strain of biofilm-forming, vancomycin-resistant Enterococcus faecalis strain (ATCC 51299), the Gram-negative biofilm-forming opportunistic pathogen Pseudomonas aeruginosa PAO1 ([…]), and a Gram-negative, biofilm-forming strain of Escherichia coli (ATCC 25922).

[2] = S. epidermidis strain 18972, Table 4

CCOc1cc(/C=C2\SC(=S)N(c3ccc(F)nc3)C2=O)ccc1O [Compound 40, 3-(6-fluoropyridin-3-yl)-5-(3-ethoxy-4-hydroxybenzylidene)-2-thioxothiazolidin-4-one]
MBIC (S. epidermidis 18972; [2]): 25 µM | MIC (S. epidermidis 18972; 18972): ≥ 100 µM | MBIC ([1]; P. aeruginosa strain PA01): ≧100 μM | MIC [1]: ≥ 100 µM

CCOc1cc(/C=C2\SC(=S)N(c3cccc(C#N)c3)C2=O)ccc1O [Compound 34, 3-(3-cyanophenyl)-5-(3-ethoxy-4-hydroxybenzylidene)-2-thioxothiazolidin-4-one]
MBIC (S. epidermidis 18972; [2]): 25 µM | MIC (S. epidermidis 18972; 18972): ≥ 100 µM | MBIC ([1]; P. aeruginosa strain PA01): ≧100 μM | MIC [1]: ≥ 100 µM

CCOc1cc(/C=C2\SC(=S)N(c3cccc(F)c3)C2=O)ccc1O [Compound 8, 3-(3-fluorophenyl)-5-(3-ethoxy-4-hydroxybenzylidene)-2-thioxothiazolidin-4-one]
MBIC (S. epidermidis 18972; [2]): 50 µM | MIC (S. epidermidis 18972; 18972): ≥ 100 µM | MBIC ([1]; P. aeruginosa strain PA01): ≧100 μM | MIC [1]: ≥ 100 µM

CCOc1cc(/C=C2\SC(=S)N(c3ccc(F)cc3)C2=O)ccc1O [Compound 4, 3-(4-fluorophenyl)-5-(3-ethoxy-4-hydroxybenzylidene)-2-thioxothiazolidin-4-one]
MBIC (S. epidermidis 18972; [2]): 25 µM | MIC (S. epidermidis 18972; 18972): ≥ 100 µM | MBIC ([1]; P. aeruginosa strain PA01): ≧100 μM | MIC [1]: ≥ 100 µM

C=CCOc1cc(/C=C2\SC(=S)N(c3ccc(F)cc3)C2=O)ccc1O [Compound 29, 3-(4-fluorophenyl)-5-(3-allyloxy-4-hydroxybenzylidene)-2-thioxothiazolidin-4-one]
MBIC (S. epidermidis 18972; [2]): 25 µM | MIC (S. epidermidis 18972; S. epidermidis strain 18972, Table 4, read-out: MIC): ≥ 100 µM | MBIC ([1]; P. aeruginosa strain PA01): ≧100 μM | MIC ([1]; P. aeruginosa strain PA01, read-out: MIC): ≥ 100 µM

CCOc1cc(/C=C2\SC(=S)N(c3cccnc3)C2=O)ccc1O [Compound 36, 3-(pyridin-3-yl)-5-(3-ethoxy-4-hydroxybenzylidene)-2-thioxothiazolidin-4-one]
MBIC (S. epidermidis 18972; [2]): 12.5 µM | MIC (S. epidermidis 18972; 18972): ≥ 100 µM | MBIC ([1]; P. aeruginosa strain PA01): ≧100 μM | MIC [1]: ≥ 100 µM
